Results taken from patent US10398751B2, “Pharmaceutical compositions of water soluble peptides with poor solubility in isotonic conditions and methods for their use” (STRONGBRIDGE IRELAND LIMITED, priority 2016, dated 2019).
Structures can show the parent of a compound that is named as a salt. Where two headings read alike, the source gives them in different places.

Tests used:
[1] = in vivo; design: species or system rats; details: rat, sc
Description: The lactic acid vehicle for use in the formulations as shown in Table 7 below was prepared as follows: Formulations for injection into rats were prepared as summarized in Table 8. Subject rats (mean weight of about 370 grams per subject) were injected according to the above dosing schedule in groups of 5 rats per treatment. Baseline tail bleed samples were drawn from the rats at 2 days prior to dosing. […] Blood samples were approximately 300 uL of whole blood collected in commercial K3 EDTA-coated tubes. Subject rats were also observed for injection site reactions for up to 5-7 days post-dosing. Blood samples were kept on ice following collection until the time of centrifugation. Blood samples were processed within 60 minutes from blood collection. Samples were centrifuged at 3000 G for 15 minutes in a refrigerated centrifuge (5° C.). Plasma was withdrawn from the tubes after centrifugation and placed into new, appropriately labeled tubes and stored at −65° C. to −80° C. until transfer. […] Veldoreotide acetate standard was serially diluted with methanol:water (1:9) and added to blank rat plasma to generate calibration standards and QC samples. The calibration samples were stored at −70° C. Frozen samples were then thawed to room temperature. Blank plasma and reagent blank (water) were also prepared. For each 100 uL aliquot of sample, calibrator or QC sample, 25 uL (˜100 ng/mL) of internal standard (octreotide acetate) in methanol:water (1:9) and 600 uL of acetonitrile:formic acid (99:1) were added and the samples vortex mixed for 30 seconds. Samples were diluted by mixing 20 uL of plasma sample with 180 uL of blank plasma and aliquotted at 100 uL prior to addition of the internal standard and acetonitrile:formic acid solutions. Samples were then centrifuged for 10 minutes at 14,000 rpm at 8° C. 450 uL of the upper (organic) layer was then transferred to evaporation tubes and evaporated under nitrogen at about 50° C. Samples were then reconstituted in 200 uL of reconstitution solution (water:acetonitrile:formic acid at 70:30:0.2). Samples were centrifuged for 10 minutes at 4000 rpm at 8° C. 160 uL of each sample was withdrawn and placed in an autosampler vial with conic glass insert and analyzed via LC-MS/MS. Veldoreotide acetate plasma concentrations were then plotted and analyzed using standard pharmacokinetic techniques.

[2] = Quantitative assessment of veldoreotide acetate solubility by HPLC; assay type: physicochemical; details: read-out: Solubility (g/liter) - HPLC
Text: The solubility of veldoreotide acetate in aqueous media was screened by the following method. A fixed amount of 10 milligrams of the peptide was weighed and dissolved at ambient temperature by increased (incremental) volumes of the tested medium until a complete solubility was observed, i.e, clear/transparent solution and absence of any precipitates (the solubility endpoint values were defined according to USP guidance). Following the results of the screening studies, several media were selected for verification studies based on quantitative assessment of the peptide concentration by HPLC (maximal solubility). The results of the screening study are depicted in Table 1 while the results of the verification studies are included in Table 2.

Cmax ([1]; Sprague-Dawley, 3 mg/kg, Rats Cmax (ng/ml)) [ng/mL]	bioavailability ([1]; Sprague-Dawley, 3 mg/kg, pH 4, Rats BA (F %)) [%]	Cmax ([1]; Sprague-Dawley, 3 mg/kg, pH 4, Rats Cmax (ng/ml)) [ng/mL]	bioavailability ([1]; Sprague-Dawley, […], Rats BA (F %)) [%]	bioavailability ([1]; Sprague-Dawley, pH 4, Rats BA (F %)) [%]	Cmax ([1]; Sprague-Dawley, pH 4, Rats Cmax (ng/ml)) [ng/mL]	solubility ([2]; 20 mM HEPES buffer, 20 mM HEPES, pH 7.2) [g/L]	solubility ([2]; 20 mM phosphate buffer, 20 mM Phosphate (10 mM Na2HPO4 + 10 mM NaH2PO4), pH 7.2) [g/L]	solubility ([2]; 0.9% NaCl, pH 4.5) [g/L]	solubility ([2]; PBS, pH 7.4) [g/L]	solubility ([2]; water) [g/L]	Cmax ([1]; HSD:Sprague Dawley SD, 3 mg/kg, Rats Cmax (ng/ml)) [ng/mL]	Cmax ([1]; HSD:Sprague Dawley SD, 3 mg/kg, pH 4, Rats Cmax (ng/ml)) [ng/mL]	SMILES
544	83	345	82	70	350	212	212	2.31	3.25	234			C[C@@H](O)[C@@H]1NC(=O)[C@H](CCCCN)NC(=O)[C@@H](Cc2c[nH]c3ccccc23)NC(=O)[C@H](Cc2c[nH]c3ccccc23)NC(=O)[C@H](Cc2ccccc2)NC(=O)CCCNC(=O)CCCN(CC(N)=O)C(=O)[C@H](Cc2ccccc2)NC1=O [Veldoreotide Acetate, Cyclo(-γ-aminobutyryl-L-phenylalanyl-L-tryptophanyl-D-tryptophanyl-L-lysyl-L-threonyl-L-phenylalanyl-N-carbamoylmethyl-γ-aminobutyryl), acetate salt]
											544	345	C[C@@H](O)[C@@H]1NC(=O)[C@H](CCCCN)NC(=O)[C@@H](Cc2c[nH]c3ccccc23)NC(=O)[C@H](Cc2c[nH]c3ccccc23)NC(=O)[C@H](Cc2ccccc2)NC(=O)CCCNC(=O)CCCN(CC(N)=O)C(=O)[C@H](Cc2ccccc2)NC1=O [Veldoreotide, cyclo(-γ-aminobutyryl-L-phenylalanyl-L-tryptophanyl-D-tryptophanyl-L-lysyl-L-threonyl-L-phenylalanyl-N-carbamoylmethyl-γ-aminobutyryl)]
